Measurements reported in US7825151B2, “Hexahydro-cyclooctyl pyrazole cannabinoid modulators” (priority 2005, dated 2010).
Several values for one entry are separate records, joined by “and”; a condition that tells them apart may be missing. Equal values may be shown once.

Assays:
[1] = target: T1, CB2 receptor (Homo sapiens, UniProt P34972); assay: Binding assay for CB2 ([3H]-CP-55,940 displacement, SK-N-MC membranes)
T1 construct: expressed in transfected cells; host or cells: SK-N-MC cells, stably transfected with pcDNA3 CB-2 (human)
Procedure: The human CB1 and CB2 receptors were stably expressed in SK-N-MC cells transfected with pcDNA3 CB-1 (human) or pcDNA3 CB-2 (human). The cells were grown in T-180 cell culture flasks under standard cell culture conditions at 37° C. in a 5% CO2 atmosphere. The cells were harvested by trysinization and homogenized in a homogenization buffer (10 mM Tris, 0.2 mM MgCl2, 5 mM KCl, with protease inhibitors aprotinin, leupeptin, pepstatin A and bacitracin) and centrifuged (2000 g). The supernatant was then centrifuged in 2M sucrose (31,300 g) to produce a semi-purified membrane pellet. The pellet was resuspended in homogenization and stored at −80° C.
On the day of the assay, the pellet was thawed on ice and diluted in assay buffer (50 mM Tris-HCl, 5 mM MgCl2, 2.5 mM EDTA, 0.5 mg/mL fatty acid free bovine serum albumin, pH 7.5). The diluted membrane pellet was added with buffer, either a test compound or vehicle standard and the radioligand [H]^3+-CP-55,940 (0.2 nM) to the wells of a 96-well polypropylene plate. Non-specific binding was measured in wells containing WIN 55,212 (10 uM). The plate was covered and incubated for 90 minutes at 30° C. The contents were then aspirated onto a Packard Unifilter GF/C filter bottom plate prewet with 0.5% polyethyleneimine. The wells of the polypropylene plate were rinsed and aspirated seven times with a 0.9% saline-0.5% Tween 20 solution. The Unifilter plate was dried, scintillation cocktail was added to each well and the counts representing binding were quantitated in a TopCount scintillation counter.
For compounds tested, an IC50 binding value was obtained from percent inhibition studies in which various test concentrations were used. The binding value was calculated by linear regression.
For compounds without an IC50 binding value, the percent inhibition (%) was obtained at a test concentration of ^(1)10 μM, ^(2)1 μM, ^(3)0.2 μM, ^(4)0.003 μM, ^(5) represents an average value.

[2] = test system: oil of mustard induced colitis; assay: Oil of mustard induced colitis model; type: in vivo, Male CD-1 mice; conditions: 5 mg/kg oral; for % Inh (Macro), % inhibition of colitis: macroscopic score; for % Inh (Micro), % inhibition of colitis: microscopic score
Excerpt: In the distal colon, the oil of mustard colitis model is characterized by a discontinuous pattern of mucosal epithelial damage, submucosal edema, infiltration of inflammatory cells (including macrophages, neutrophils and lymphocytes) into the mucosa and submucosa, increased wet weight of the colon, shrinkage of the colon length, diarrhea and apparent inflammation (see, Kimball E. S., Palmer J. M., D'Andrea M. R., Hornby P. J. and Wade P. R., Acute colitis induction by oil of mustard results in later development of an IBS-like accelerated upper GI transit in mice, Am. J. Physiol. Gastrointest. Liver Physiol., 2005, 288: G 1266-1273).
Male CD-1 mice (Charles River Laboratories, Kingston, N.C.) (9-11 weeks old) and fresh oil of mustard (OM) (allyl isothiocyanate, 98% purity, Sigma-Aldrich St. Louis, Mo.) were used.
The mice (9 per treatment group) were briefly anesthetized with ketamine/xylasine (Sigma, St. Louis, Mo.) and a solution of 0.5% OM in 30% ethanol (50 μL) was administered intracolonically (to a depth of 4 cm) via syringe (equipped with a ball-tipped 22 G needle).
A test compound was orally administered one day prior to colitis induction for assessing a prophylactic regimen or one day post-induction for assessing a therapeutic regimen. A test compound was orally administered daily thereafter. Two days after OM administration, the last test compound dose was administered.
Three days after OM administration, the animals were sacrificed. The colons were resected, examined for signs of inflammation, weighed after removing fecal contents and the length from the aboral end of the cecum to the anus was measured. The fecal contents were examined for signs of diarrhea. The distal colon between the 1st and the 4th centimeter was removed and placed in 10% neutral buffered formalin for histological analysis.
The macroscopic observations of colon inflammation (a measure of colon damage), colon weight and length and stool consistency and appearance were assigned a score and used to evaluate colitis severity.
The four observation scores for each colon were combined, whereby a combined score of 0 represents a normal colon and a combined score of 15 represents a maximally affected colon. Statistical analyses were performed in Graphpad Prism 4.0 using ANOVA.
Histological analyses of tissues consisted of staining paraffin-embedded tissue sections with hematoxylin-eosin dye. The tissues were examined using light microscopy by an investigator who was blinded to the sample groups. […]
The Macroscopic Score and Microscopic Score results for each treatment group in the prophylactic and therapeutic regimens were each combined into a mean score and expressed as % inhibition of colitis (% Inh). […]

T1 sequence (P34972 whole entry): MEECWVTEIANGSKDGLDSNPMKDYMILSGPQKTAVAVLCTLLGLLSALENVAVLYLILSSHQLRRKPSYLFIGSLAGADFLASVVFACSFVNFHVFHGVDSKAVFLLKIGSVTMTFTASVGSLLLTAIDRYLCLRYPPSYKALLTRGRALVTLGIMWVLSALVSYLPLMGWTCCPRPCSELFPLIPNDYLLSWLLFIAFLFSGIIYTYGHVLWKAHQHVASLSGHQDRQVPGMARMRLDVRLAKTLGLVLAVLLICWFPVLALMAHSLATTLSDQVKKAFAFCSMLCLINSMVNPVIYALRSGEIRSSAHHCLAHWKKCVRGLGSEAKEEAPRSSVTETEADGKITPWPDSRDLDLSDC

## O=C(NCC12CC3CC(CC(C3)C1)C2)c1nn(C2CCCCC2)c2c1CCCCCC2 [Cpd 2, 1-cyclohexyl-4,5,6,7,8,9-hexahydro-1H-cyclooctapyrazole-3-carboxylic acid (adamantan-1-ylmethyl)-amide]
[1]; Cannabinoid CB2 Receptor Binding IC50, radioligand CP-55,940 0.2 nM, SK-N-MC membranes
  IC50: 1 nM and 6 nM and 10 nM
[1]; read-out: CB2 receptor binding percent inhibition
  inhibition at 0.003 µM: 86%
[2]; prophylactic regimen
  % Inh (Macro), % inhibition of colitis: 42.3 ± 12.6%
  % Inh (Micro), % inhibition of colitis: 74.4 ± 3.8%
[2]; therapeutic regimen
  % Inh (Macro), % inhibition of colitis: 38.7 ± 9.1%
  % Inh (Micro), % inhibition of colitis: 66.0 ± 9.8%
